Results published in publication PMC6742641, “Design, synthesis and biological evaluation of a series of CNS penetrant HDAC inhibitors structurally derived from amyloid-β probes” (Scientific Reports, 2019).
Where two headings read alike, the source gives them in different places.

Key:
HDAC3 = biological target: T1, HDAC3 (Homo sapiens, UniProt O15379); assay: HDAC activity assay (fluorimetric, BPS Biosciences); format: biochemical; conditions: class I; mean ± SD (n = 2)
T1 construct: purchased BPS Biosciences
Experimental: HDAC1, 3, 6 and 7 activity assays were performed according to the manufacturer’s protocol (BPS Biosciences). […] The HDAC assay developer was added to the mixture and incubated the plate at rt for 15 min. The fluorescence intensity was measured using a Tecan Infinite F200 Pro plate reader.

SH-SY5Y cells = assay: Cell proliferation (anti-proliferation) assay, MTS; format: cell-based, human
Experimental: SH-SY5Y cells were grown in DMEM with L-glutamin supplemented with streptomycin ([…]), penicillin (100 units/mL), and 10% fetal bovine serum (FBS). Cells were grown to confluence in a humidified atmosphere (37 °C, 5% CO2).
SH-SY5Y cells (1.5 × 10^3 cells/well) were seeded in a clear 96-well plate, the medium volume was brought to 100 µL, and the cells were allowed to attach overnight. The next day, various concentrations of compounds or DMSO were added to the wells. Cells were then incubated at 37 °C for 24, 48 and 72 h. Cell viability was determined using the Promega Cell Titer 96 Aqueous One Solution cell proliferation assay. Absorbance at 490 nm was read on Tecan Infinite F200 Pro plate reader, and values were expressed as percent of absorbance from cells incubated in DMSO alone.

PAMPA-BBB assay = format: in vitro ADME
Experimental: BBB-PAMPA was conducted by manufacturer’s instruction (pION Inc, MA, USA). […] Transmembrane side to donor part was coated with BBB lipid solution and add 200 μL acceptor buffer in upper part of PAMPA sandwich plate.

[1] = In vivo brain pharmacokinetic study; conditions: ICR male mice, IV, 2 mg/kg
Experimental: The study was approved by the Institutional Animal Care and Use of Committee of Daegu-Gyeongbuk Medical Innovation Foundation (DGMIF) and performed in accordance with protocols approved by the Institutional Animal Care and Use of Committee. […] Brain and plasma samples were collected at 0.5 and 1 h time points. Brain samples were homogenized at a 1:4 ratio of sample weight (g) to PBS volume (mL). Aliquots (20 μL) of brain homogenate were mixed with 180 μL of acetonitrile, vortexed and centrifuged at 15,000 rpm for 5 minutes at 4 °C. The resulting supernatants were used for LC-MS/MS analysis. Mice plasma samples were collected at 0.5 and 1 h time points. 180 μL of acetonitrile was added to 20 μL of plasma samples, vortexed and centrifuged at 15,000 rpm for 5 minutes at 4 °C.

T1 sequence (O15379 whole entry): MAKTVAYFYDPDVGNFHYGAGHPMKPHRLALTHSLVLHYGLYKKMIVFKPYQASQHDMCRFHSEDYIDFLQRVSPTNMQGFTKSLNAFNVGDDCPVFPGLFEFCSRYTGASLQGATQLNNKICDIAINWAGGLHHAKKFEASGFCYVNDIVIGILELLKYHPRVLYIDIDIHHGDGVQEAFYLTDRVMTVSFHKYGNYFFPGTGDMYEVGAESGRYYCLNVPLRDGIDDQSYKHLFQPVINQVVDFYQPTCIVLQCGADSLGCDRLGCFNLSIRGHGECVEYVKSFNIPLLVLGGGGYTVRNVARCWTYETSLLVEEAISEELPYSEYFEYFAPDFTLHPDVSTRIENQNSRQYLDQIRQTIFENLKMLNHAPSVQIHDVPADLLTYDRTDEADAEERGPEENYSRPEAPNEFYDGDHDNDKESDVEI
T1 sequence (Q9Y618 395-489 partner limits assumed): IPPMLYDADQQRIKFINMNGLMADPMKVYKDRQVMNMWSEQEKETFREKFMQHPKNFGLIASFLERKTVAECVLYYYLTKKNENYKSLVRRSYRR

IC50 (HDAC3): 142 ± 45.7 nM | GI50 (SH-SY5Y cells; Homo sapiens, SH-SY5Y neuroblastoma cell line, 72 h, mean ± SD (n = 4)): 2.01 ± 0.33 µM | IC50 (SH-SY5Y cells; Homo sapiens, SH-SY5Y, Table 1 values IC50, read-out: anti-proliferative activity IC50 against SH-SY5Y cell line): 2010 nM | Pe (10^−6 cm/s) (PAMPA-BBB assay; 25 μM, pH 7.4, 4 h, 25 °C, mean ± SD, three independent experiments): 27.15 10^−6 cm/s | CNS +/− classification (PAMPA-BBB assay; PAMPA-BBB): CNS + (CNS + indicates (Pe > 10)) | Papp at 4 h, 25 μM (PAMPA-BBB assay; PAMPA, 25 μM, pH 7.4, 4 h, 25 °C, mean ± SD, three independent experiments, read-out: Pe): 27.1 ± 1.59 ×10⁻⁶ cm/s | Brain concentration (ng/mL) 0.5 h ([1]; 0.5 h, n = 4): 414.6 ± 88.7 ng/mL | Brain concentration (ng/mL) 1 h ([1]; 1 h, n = 4): 52.9 ± 1.6 ng/mL | Kp at 0.5 h ([1]; mouse, brain/plasma, 0.5 h, read-out: Brain/plasma ratio 0.5 h): 9 | Kp at 1 h ([1]; mouse, brain/plasma, 1 h, read-out: Brain/plasma ratio 1 h): 7.2 | concentration at 0.5 h ([1]; mouse, brain, 0.5 h, n = 4, read-out: Brain concentration (ng/mL) 0.5 h): 415 ng/mL | concentration at 1 h ([1]; mouse, brain, 1 h, n = 4, read-out: Brain concentration (ng/mL) 1 h): 52.9 ng/mL | concentration at 0.5 h ([1]; mouse, plasma, 0.5 h, n = 4, read-out: Plasma concentration (ng/mL) 0.5 h): 46 ± 13.9 ng/mL | concentration at 1 h ([1]; mouse, plasma, 1 h, n = 4, read-out: Plasma concentration (ng/mL) 1 h): 7.3 ± 1 ng/mL
Structure (SMILES): O=C(NO)c1ccc(-c2nc3ccccc3s2)cc1 [Compound 9b]
SH-SY5Y cell growth impaired (SH-SY5Y cells; 5 μM, 72 hours): ~73%
